Measured values: patent publication US20140227238A1, “PEPTIDES HAVING PROTECTIVE EFFECT TOWARDS THE INFLAMMATORY ACTIVITY OF PEPTIDE 31-43 OF A-GLIADIN IN CELIAC DISEASE” (CRA-CONSIGLIO PER LA RICERCA E LA, priority 2011, published 2014)
Entries after “also recorded” stand apart in the source; their conditions may differ.

Key:
K562(S) cells [1] = test: K562(S) cell agglutination test; assay type: cell-based, human; settings: for (Δ) O.D. (protecting activity): incubated together with p31-43; for protecting activity towards p31-43 induced agglutination of K562 cells: with p31-43
Procedure: K562(S) cells, an immature subclone of a cell line from a blastic phase chronic myelogenous leukemia patient, are cultured under 5% CO2 atmosphere at 37° C. in RPMI (Gibco, supplied by Invitrogen, Carlsbad, Calif., USA) containing 4.5 g/L glucose, 2 mM L-glutamine, 50 U/ml penicillin, […] streptomycin, 1% essential amino acids, 1% HEPES and 10% bovine fetal serum (FBS).
K562(S) cells to be used for agglutination test have been collected by centrifugation and washed two times with calcium and magnesium free PBS. Then cells have been resuspended at concentration of 10^8 cells/ml in PBS; […] of cell suspension added to each well of a 96 well plate. The peptide has been added at a concentration of 10 μg/ml. The final total volume has been 100 μl. Cell suspension has been incubated at room temp. for 30 minutes. Agglutination rate has been measured using a 96 well plate reader equipped with stirrer. Turbidity of cellular suspension has been measured at 600 nm (OD600 nm) under continuous stirring at 0 and 30 min times. The difference of T0 and T30 readings has been taken as agglutination rate (CV).

[2] = test system: biopsies from celiac subjects; test: Organ culture of celiac duodenal mucosa with p31-43, immunolocalization of Py99 and phospho-p42/p44; assay type: cell-based, human
Procedure: (§1) Duodenal mucosa samples have been treated in vitro for 3 and 24 hours using medium, gliadin PT digest (500 μg/mL), p31-43 (20 μg/ml), pRPQ (10 μg/ml). P7mer and pTPO (10 μg/ml) have been used in all the experiments as control peptides.
(§2) 4 μm thick sections of frozen biopsy samples from celiac patients have been fixed in acetone for 10 minutes. Then sections have been incubated for 2 hours at room temp. with following antibodies: anti-phospho-tyrosine PY99 mAb (1:80, IgG2b; Saint Cruz Biotechnology, Saint Cruz, Calif.), phospho-p42/p44 (1:500, polyclonal Ig; Cell Technology Beverly, USA), ICAM1 (1:500, Abcam, Cambridge, BUT, USA), HLA-DR (1:500, Abcam, Cambridge, BUT, USA). Antigene expression and distribution thereof within biopsy sample have been visualized by indirect immunofluorescence as previously described. Monoclonal isotype control (IgG1 and IgG2) has been used as control. Samples have been analyzed using Zeiss LSM510 confocal laser scanning unit (Carl Zeiss, Germany).

[3] = test system: intestinal biopsies from celiac patients; test: Organ culture of celiac duodenal mucosa with gliadin PT digest, immunolocalization of immune activation labels (CD25+, ICAM1, HLA-DR); assay type: cell-based, human
Procedure: as §1, §2

TG2 = test: In situ determination of TG2 activity in duodenal mucosa from celiac patients; assay type: cell-based, human; settings: co-incubation with p31-43, biopsies from celiac subjects
Procedure: as §1
7 μm diameter sections have been collected on slide, pre-incubated with buffer (965 ml of 100 mmol/L Tris-HCl, pH 7.4, […] of 200 mmol/L CaCl2) for 15 minutes, and then pre-incubated with same buffer added with 10 ml of 10 mmol/L of biotinylated mono-dansylcadaverine (bio-MDC) (Molecular Probes, Leiden, The Netherlands) for 1 hour at room temp. The reaction is stopped using 25 mmol/L of EDTA for 5 minutes, then sections have been fixed in 4% paraformaldeide for 10 minutes. Labelled substrate incorporation has been visualized by incubation with streptavidin-conjugated RPE (1:50; Dako) for 30 minutes. Sections have been visualized fluorescently using Axioxop Zeiss 2 Plus micropurpose (Zeiss, Jena, Germany).

ICAM-1 in T84 cells = test: Western blotting for expression of ICAM-1 in T84 cells; assay type: cell-based, human; settings: 24 hours; for ICAM-1 level in T84 cells: peptide alone, 20 μg/ml, compared to medium only; for ICAM-1 level in T84 cells exposed to p31-43: peptide together with p31-43, 20 μg/ml each
Procedure: T84 human colonic carcinoma cells have been cultured under 5% CO2 atmosphere at 37° C. in 50% DMEM, (Gibco, supplied by Invitrogen, Carlsbad, Calif., USA) and 50% […] containing 4.5 g/L glucose, 2 mM L-glutamine, 50 U/ml penicillin, […] streptomycin, 1% essential amino acids, 1% HEPES and 10% bovine fetal serum (FBS).
T84 cells have been treated with p31-43 peptide in absence and presence of pRPQ, pDAV, p7mer (at peptide concentration of 20 μg/ml) and culture medium only (like negative control) for 24 hours at 37° C.
For WB analysis, T84 cells have been seeded at a concentration of 1×10^5 cells/ml in 12 well plate and shortly treated before confluence was reached. Treatment has been carried out using 20 μg/ml of medium for each peptide (p31-43, p7mer, pDAV, pRPQ) for 24 hours. In order the protecting activity of pDAV and pRPQ towards toxic effect of p31-43 to be tested, a pre-incubation for 3 hours using these peptides before the exposure to p31-43, has been performed. After incubation, cells have been treated with buffer containing 150 mM NaCl, 0.05% sodium dodecyl sulfate (SDS) and 1% Triton X-100. This mixture then has been centrifuged for 5 minutes at 4° C. Protein concentration has been measured according to […]. SDS-(Polyacryl amide Gel Electrophoresis) has been carried out using 4% and 7.5% gel. […] of protein have been loaded for each gel run. Then the proteins have been transferred on nitrocellulose membrane (Biorad). Membranes have been incubated overnight with mice anti-ICAM-1 monoclonal Abs (Abcam, Cambridge, UK) at 1:250 dilution. Successively, after washings, said membrane have been incubated with secondary antibody (peroxidase HRP:3000; Biorad). Membrane occurring proteins are detected using chemiluminescent detection kit (Biorad), according to producer instructions. Blot intensity of protein bands has been evaluated by Biorad ChemiDoc densitometer.

K562(S) cells [4] = settings: earlier studies (6-9); cited from earlier work
[5] = 10 μg/ml, difference of O.D at 600 nm at 0 and 30 minutes ×100, K562(S) cells
[6] = p31-43 20 μg/ml, peptide 10 μg/ml
[7] = 500 μg/ml gliadin PT digest, 10 μg/ml peptide

Substance | (Δ) O.D. (protecting activity) (K562(S) cells [1]; [5]) | protecting activity towards p31-43 induced agglutination of K562 cells (K562(S) cells [1]) | ICAM-1 level in T84 cells (ICAM-1 in T84 cells) | ICAM-1 level in T84 cells exposed to p31-43 (ICAM-1 in T84 cells) | also measured
QQPQWQPF (SEQ ID NO: 15) (peptide corresponding to SEQ ID NO4 sequence wherein X is W) [pW] | −9.1 ± 2.3 | – | – | – | –
QQPQGGGQPF (SEQ ID NO: 13) (peptide corresponding to SEQ ID NO4 sequence wherein X is three G) [pGGG] | −7.9 ± 1.4 | displayed a protecting activity | – | – | –
LDPLIRGILLARPAKL QV (SEQ ID NO: 16) (LDPLIRGILLARPAKLQV; control irrilevant peptide) [TPO control peptide, control irrelevant peptide, reference compound] | – | – | – | – | protecting effect against the activation induced by p31-43 ([2]; duodenal biopsies): lacking of any protecting effect; protecting effect against the activation induced by gliadin ([3]; duodenal biopsies): lacking of any protecting effect
QQPQRPQQPF (SEQ ID NO: 2) (peptide corresponding ro omega-secalin from aa 218 to aa 227 codified by the sequence deposited at NCBI with accession number FJ823438) [pRPQ] | −9.8 ± 1.7 | prevent p31-43 induced agglutination | No meaningful increase | ICAM-1 levels similar to cells exposed only to culture medium | expression increase of Py99 [2, 6]: meaningfully prevents; p42/44 phosphorylation induced by p31-43 [2, 6]: meaningfully prevents; also recorded: prevents the increase; p31-43-induced TG2 activity (TG2): completely inhibited; p31-43-induced TG2 activity (TG2; listed as RPQ peptide): meaningfully prevents; gliadin induced increase of HLA-DR expression in mucosa [3, 7]: meaningfully prevents; also recorded: suitable to control; gliadin induced increase of ICAM1 expression in mucosa [3, 7]: meaningfully prevents; also recorded: suitable to control; gliadin induced increase of T CD25+ cells within lamina propria [3, 7]: suitable to control; mucosa immunity stimulating activity ([3]; peptide alone, duodenal biopsies from both celiac and healthy control subjects, data not shown): lacking in mucosa immunity stimulating activity
QQPQYYYQPF (SEQ ID NO: 14) (peptide corresponding to SEQ ID No4 sequence wherein X is three Y) [pYYY] | −7 ± 2.5 | little higher protecting activity than pGGG | – | – | –
QQPQQPF (SEQ ID NO: 3) (toxic gliadin peptide from aa 139 to aa 145 of omega-gliadin sequence having accession number AAT74547) [p7mer, 7mer peptide shared by pDAV and pRPQ, known to be toxic in CD, reference compound] | 1.5 ± 1.1 | does not display any protecting effect | increases ICAM-1 intracellular levels | does not exert any anti-inflammatory effect | agglutinant activity towards K562 cells (K562(S) cells [1]; peptide alone): displays also agglutinant activity; (Δ) O.D. (agglutinating activity) (K562(S) cells [1]; peptide alone, 10 μg/ml, difference of O.D at 600 nm at 0 and 30 minutes ×100, K562(S) cells): 1.0 ± 0.3; ICAM-1 level in T84 cells (ICAM-1 in T84 cells; listed as 7mer): poor increase; ICAM-1 level in T84 cells exposed to p31-43 (ICAM-1 in T84 cells; listed as 7mer): no meaningful decrease
QQPQDAVQPF (SEQ ID NO: 1) (mutated omega-secalin peptide) [pDAV, decapeptide identified earlier in wheat peptic-triptic digest (WO9727217)] | −12 ± 1.9 | prevent p31-43 induced agglutination | No meaningful increase | ICAM-1 levels similar to cells exposed only to culture medium | prevention of agglutination of K562(S) cells by gliadin peptides (K562(S) cells [4]): suitable to prevent the agglutination of K562(S) cells by gliadin peptides
